Test results taken from ChEMBL document CHEMBL3507680, “University of Dundee, Gates Library screen for HepG2 cell viability”.

Assay: Human HepG2 cell viability assay in 384 well format
Assay type: toxicity, cell-based
Design: dose 125 nL, time 70.5 hour; concentration not given beside the values
Conditions: HepG2 cells, read-out: Inhibition

| SMILES | cytotoxicity at 70.5 h |
| --- | --- |
| CCCS(=O)(=O)N1C[C@H]2C[C@H](C(=O)N3CCCC3)[C@@H](C1)O2 | -3.05% |
| CC(=O)N1CCC2(C1)CN(S(=O)(=O)c1ccccc1)C2 | -7.01% |
| O=C(Cc1ccc(F)cc1)N1C[C@H]2CCN[C@H]2C1 | -5% |
| C[C@H]1C[C@H]2CN(S(=O)(=O)c3ccc(F)cc3)CC[C@H]2O1 | 13.7% |
| N#Cc1ccc(C(=O)N2CCC3(CC2)CC3)cc1 | 4.59% |
| COCCN1C(=O)CCC12CCCN(C(=O)NC(C)C)CC2 (stereo not drawn) | 7.1% |
| Cn1cccc1C(=O)N1CCC2(CC1)CN(S(C)(=O)=O)c1ccccc12 | 3.63% |
| Cc1cc(C(=O)N2CC[C@@H](O)[C@@H]2Cc2ccccc2)no1 | -11.3% |
| CN1CCN(C(=O)c2n[nH]c3c2CN(C2CCOC2)CC3)CC1 (stereo not drawn) | -10.2% |
| Cc1cccc(N2CC3(CCN(S(=O)(=O)c4cccs4)C3)CC2=O)c1 (stereo not drawn) | -2.22% |
| CC[C@@H]1N(CC2CCC2)CCC[C@]12CCC(=O)N2Cc1ccncc1 | -4.74% |
| COc1ccc(C[C@H]2CN(C(=O)c3ncccn3)CC[C@@H]2OC)cc1 | -6.01% |
| O=C(C1CCOCC1)N1CCC2(CCNCC2)C1 | -11.8% |
| O=C1N(Cc2cccc(F)c2)CCC12CCCNC2 (stereo not drawn) | -13.6% |
| O=C(C1CCOC1)N1CCC2(CC1)COC2 (stereo not drawn) | -7.79% |
| CC(C)NC(=O)[C@H]1C[C@@H]2[C@@H](C1)OCCN2Cc1ccncc1 | -7.54% |
| c1cc(C[C@H]2[C@H](N3CCOCC3)CCN2Cc2ccoc2)ccn1 | -11.4% |
| c1nc2c(c(C3CCOC3)n1)CCN(Cc1ccoc1)CC2 (stereo not drawn) | 7.95% |
| Cc1cnc(C(=O)N2CCC3(CC2)CC(c2ccccc2)C(=O)N3)cn1 (stereo not drawn) | 8.04% |
| CNC(=O)c1nc2c(s1)CCN(C(=O)c1ccccc1)CC2 | -9.7% |
| CN(C)CCOCC1CN(C(=O)c2cscn2)Cc2ccnn2C1 (stereo not drawn) | -8.28% |
| CS(=O)(=O)N[C@@H]1CN(Cc2ccccc2)C[C@@H]2CCCO[C@@H]21 | -4.64% |
| CC(C)CNC(=O)c1nc2c(s1)CCN(C(=O)c1ccc(Cl)cc1)CC2 | -3.22% |
| CCS(=O)(=O)N1CCC2(CC(=O)N(c3cncnc3)C2)C1 (stereo not drawn) | -3.21% |
| Cn1cccc1C(=O)NCc1cnc2n1CCN(C(N)=O)CC2 | -4.35% |
| Cc1noc(C)c1CN1CCOC2(CCCN(c3ccccn3)C2)C1 (stereo not drawn) | -8.65% |

| SMILES | cytotoxicity at 70.5 h |
| --- | --- |
| O=C([C@H]1C[C@H]2OCC[C@H]2N(C(=O)c2ccnnc2)C1)N1CCCCO1 | 1.65% |
| O=C([C@H]1C[C@H]2OCC[C@H]2N(C(=O)c2cnccn2)C1)N1CCCCO1 | -8.15% |
| Cn1cccc1C(=O)NCc1cnc2n1CCN(C(=O)c1ccoc1)C2 | -7.47% |
| Cc1occc1C(=O)N1C[C@@H](C(=O)N2CCCCO2)C[C@H]2OCC[C@H]21 | -7.27% |
| Cn1nnc2c1CCN(C(=O)CC1CC1)C2COCCN1CCCC1 (stereo not drawn) | 8.05% |
| O=C(c1ccoc1)N1CCO[C@]2(CCC[C@@H]2COCc2ccncc2)C1 | 1.38% |
| c1ccc(CN2CCN3C[C@H](Oc4cccnc4)C[C@H]3C2)nc1 | -3.66% |
| COC[C@H]1CNC(=O)[C@@H]2CCN(Cc3cccc(C)n3)CC[C@H]12 | 0.496% |
| O=C(c1ccno1)N1CCO[C@]2(CCC[C@@H]2COCc2ccncc2)C1 | -2.51% |
| CC(=O)NCC(=O)N1CCc2c(CNc3ncccn3)cncc2C1 | -2.19% |
| O=C(N1CCCC1)N1CC[C@H]2[C@H]1CCN2c1ncccn1 | -3.91% |
| CN1C(=O)CC(c2ccccc2)C12CCN(CC1CC1)CC2 (stereo not drawn) | -11.2% |
| CCCS(=O)(=O)N1C[C@H]2C[C@H](C(=O)N3CCN(C)CC3)[C@@H](C1)O2 | 4.46% |
| O=C1CC2(CCN(CC3CCOC3)CC2)c2ccccc2N1CC1CC1 (stereo not drawn) | -1.14% |
| O=C1Nc2ccccc2C12CCN(Cc1cccs1)CC2 | -2.74% |
| Cc1ccc(CN2CCC3(CC2)CCN(C(=O)c2cccn2C)C3)cc1 | -3.29% |
| CCN1C(=O)CC[C@]12CC[C@@H](NC(=O)c1ccncc1F)CC2 | -6.51% |
| O=C1CC[C@H]2[C@@H](CCN2Cc2ccco2)N1 | -8.59% |
| CO[C@H]1CCN(C(=O)Cc2ccsc2)[C@@H]2CN(CC3CC3)C[C@H]12 | -4.21% |
| CN1C(=O)CC(c2ccccc2)C12CCN(CCO)CC2 (stereo not drawn) | 2.6% |
| O=C(C1CC1)N1CCC2(CCCN2Cc2ccc(F)cc2)CC1 | 5.51% |
| CC(C)NC(=O)N1CCC2(CCC(=O)N2CCN(C)C)CC1 | -8.1% |
| O=C1[C@H]2CN(C(=O)[C@H]3CCCO3)C[C@H]2CN1CCN1CCCC1 | -9.56% |
| O=C1CC[C@]2(CC[C@@H](NCc3ccsc3)CC2)N1Cc1ccccc1 | -3.82% |
| CCN1CCC2(CCN(Cc3ccc(OC)cc3)CC2)C1=O | -3.84% |
| CNC(=O)CN1CCCC12CCN(C(=O)c1ccccc1F)CC2 | -10.4% |

| SMILES | cytotoxicity at 70.5 h |
| --- | --- |
| O=C1C[C@H]2[C@@H](CCN2C(=O)Cc2ccccc2)N1Cc1cccnc1 | -8.76% |
| CCOC1COC2(CCN(Cc3ccc(F)cc3)CC2)C1 (stereo not drawn) | -20.1% |
| CC(=O)N1C(CN2CCCC2)C[C@@H]2CN(C(=O)c3ccoc3)CC[C@@H]21 (stereo partly drawn) | -15.6% |
| CCOC1COC2(CCN(Cc3ccc(C)c(C)c3)CC2)C1 (stereo not drawn) | -11% |
| CCOC1COC2(CCN(Cc3ccc(C)cc3)CC2)C1 (stereo not drawn) | -11.9% |
| COCCC(=O)N1C[C@H]2CN(Cc3cccnc3)C(=O)[C@H]2C1 | 4.13% |
| Cn1cc(CN2CCC[C@]3(C(=O)O)CN(c4ncccn4)C[C@@H]3C2)cn1 | -12% |
| CCc1ncnc2c1CCN(Cc1cccs1)CC2 | -7.19% |
| c1csc(CN2CCc3ncnc(C4CCOC4)c3CC2)n1 (stereo not drawn) | -4.88% |
| CO[C@H]1CCN(c2nnc(C)s2)C[C@@H]1Cc1ccccc1 | -4.37% |
| O=C(N1CCCC1)N1CCC[C@]2(C[C@@H](OCc3ccncc3)CO2)C1 | -10.6% |
| COc1ccc(C[C@H]2CN(c3nnc(C)s3)CC[C@H]2OC)cc1 | -10.2% |
| O=C([C@H]1CN(Cc2ccc(F)cc2)C[C@H]2OCC[C@@H]12)N1CCCO1 | -7.77% |
| CNC(=O)[C@H]1C[C@H]2OCC[C@H]2N(CC2CCOCC2)C1 | -8.61% |
| CO[C@H]1CCN(c2nnc(C)s2)C[C@@H]1Cc1cccc(C)c1 | 7.81% |
| O=C(N[C@@H]1CN(c2ncccn2)C[C@@H]2CCCO[C@@H]21)c1ccnnc1 | -6.03% |
| O=C(NCc1cn2c(n1)CN(Cc1nccs1)CC2)C1CCC1 | -6.31% |
| N#Cc1cccc(CN2C[C@H](OCC3CCOCC3)[C@H]3COC[C@H]32)c1 | -5.67% |
| O=C([C@H]1C[C@H]2OCC[C@H]2N(C(=O)c2ccccn2)C1)N1CCCCO1 | -6.44% |
| COCC(=O)N1CCc2c(nnn2C)C1COCCN1CCCC1 (stereo not drawn) | -2.45% |
| CC(C)N(C)Cc1ncn2c1CN(S(=O)(=O)c1cccs1)CCC2 | 13% |
| CS(=O)(=O)NC[C@@H]1OC[C@H]2CN(C(=O)c3ccccn3)CC[C@H]21 | -3.81% |
| O=C(CC1CC1)N[C@@H]1CN(Cc2ccco2)C[C@@H]2CCCO[C@@H]21 | -2.26% |
| CNC(=O)[C@@H]1CCO[C@@H]2CCN(C3CCOCC3)C[C@@H]21 | -0.345% |
| Cc1cc(CN2CC[C@H]3OCC[C@@]3(C(=O)NCc3ccco3)C2)no1 | 0.284% |
| O=C(c1ccc[nH]1)N1CCO[C@]2(CCC[C@@H]2COc2cccnc2)C1 | -2.32% |

| SMILES | cytotoxicity at 70.5 h |
| --- | --- |
| CCS(=O)(=O)N1CCC2(CC1)CC(COC)N(c1ncccn1)C2 (stereo not drawn) | 2.68% |
| O=C(c1ccoc1)N1CCO[C@]2(CCC[C@H]2COCc2cccnc2)C1 | -0.748% |
| O=S(=O)(c1cccs1)N1CCCn2cnc(CO)c2C1 | -1.4% |
| Cc1ccc(CN2C[C@@H]3CCCO[C@@H]3[C@H](NC(=O)CC3CC3)C2)s1 | -1.25% |
| COCC(=O)N1CCC2(CC1)CC(COC)N(c1ncccn1)C2 (stereo not drawn) | -5.32% |
| Cc1nc(CN2C[C@@H]3CCCO[C@@H]3[C@H](NC(=O)CC3CC3)C2)cs1 | -0.515% |
| O=C(NC1CCC1)[C@@H]1CCO[C@@H]2CCN(C3CCCC3)C[C@@H]21 | 1.69% |
| COCCN1CCC2(CC1)CC(NC(=O)CN(C)C)c1ccccc1O2 (stereo not drawn) | -6.88% |
| O=C(c1n[nH]c2c1CN(C1CCOC1)CC2)N1CCCC1 (stereo not drawn) | -1.72% |
| CC[C@@H]1N(C)CCC[C@]12CCC(=O)N2Cc1ccncc1 | 0.423% |
| COCC1CN(Cc2cc(C)on2)Cc2cn(CC3CCCC3)nc21 (stereo not drawn) | -8.99% |
| c1cc(CN2CCc3ncnc(C4CCOC4)c3CC2)ccn1 (stereo not drawn) | -6.5% |
| O=C(NCc1cn2c(n1)CN(Cc1ccncc1)CC2)C1CCC1 | 8.23% |
| O=C(NCc1cn2c(n1)CN(Cc1cccnc1)CC2)C1CCC1 | 7.24% |
| c1cc(CN2CCCC3(COCCN(Cc4c[nH]nn4)C3)C2)cs1 (stereo not drawn) | -2.64% |
| O=C(NCc1cn2c(n1)CN(Cc1ccccn1)CC2)C1CCC1 | -10% |
| O=C(N[C@@H]1CN(c2ncccn2)C[C@@H]2CCCO[C@@H]21)c1ccncc1 | -3.78% |
| Fc1ccc(CN2CCCC3(COCCN(Cc4c[nH]nn4)C3)C2)cc1 (stereo not drawn) | -5.93% |
| CS(=O)(=O)N[C@@H]1CN(Cc2ccncc2)C[C@@H]2CCCO[C@@H]21 | -9.37% |
| CN(C)CCN1CCOCC2(CCCN(C(=O)Cc3ccccc3)C2)C1 (stereo not drawn) | 10.9% |
| Cn1ccnc1CN1CCN2C[C@H](Oc3ccccc3)C[C@H]2C1 | 11.2% |
| O=C(NCc1ccncc1)c1nc2c(o1)CN(C(=O)c1cccnc1)C2 | -0.144% |
| Cn1ccnc1CN1CCN2C[C@H](OCc3ccccc3)C[C@H]2C1 | -1.75% |
| CN1CCN(C(=O)c2n[nH]c3c2CN(C2CCOCC2)CC3)CC1 | -10.2% |
| COCC1CC2(CCN(Cc3cccnc3)CC2)CN1c1ncccn1 (stereo not drawn) | -0.169% |
